These results are taken from ChEMBL document CHEMBL1201862, “PubChem BioAssay data set” (2004).

Common to all, as to experiment: inhibition of tumour cell growth, NCI panel, 48 h
Assay [1] deals with EKVX.
Assay [2] relates to SF-295.
Assay [3] concerns SW-620.
In assay [4] the test system is HCT-15.
The test system of assay [5] is UACC-62.
Assay [6] relates to M14.
Assay [7] deals with COLO 205.
For assay [8], the system named is OVCAR-4.
Assay [9] has as its system NCI-H23.
The test system of assay [10] is CAKI-1.
In assay [11] the test system is K562.
The subject of assay [12] is OVCAR-8.
Assay [13] relates to LOX IMVI.
Assay [14] relates to TK-10.
In assay [15] the test system is HOP-62.
Assay [16] has as its system KM-20L2.
Assay [17] has as its system RXF 393.
The subject of assay [18] is NCI/ADR-RES.
The test system of assay [19] is MCF7.
Assay [20] has as its system MDA-MB-231.

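Values below derive from 48-hour exposures of cells grown in 96-well plates, with endpoints linearly interpolated between the two concentrations bracketing the appropriate inhibition level. GI50 marks 50% less growth.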 Activity calls are given as the source filed them. Cut-off read from the data, not from the text of the source: active = GI50 up to about 1.1 µM and inactive = higher.

Consider `C/C(=C\c1ccccc1)C(O)C(=O)c1nc2ccc(Cl)cc2nc1O` (stereo not given), for which the GI50 was 91.2 µM (inactive) in assay [1]; > 100 µM (inactive) in [2]; > 100 µM (inactive) in assay [3]; greater than 100 µM in assay [4]; > 100 µM (inactive) in assay [5]; > 100 µM (inactive) in assay [6]. Also, the GI50 is > 100 µM (inactive) in assay [7]; 26 µM (inactive) in assay [8]; > 100 µM (inactive) in assay [9]; > 100 µM (inactive) in assay [10]; 55.5 µM (inactive) in [11]; > 100 µM (inactive) in [12]. In addition, the GI50 in assay [13], in [14], in assay [15] and in [16] was > 100 µM (inactive) throughout.

For `N=C1N(c2ccccc2)C(=S)/C(=N/c2ccccc2)N1c1ccccc1`, the GI50 is 21.1 µM (inactive) in [1]; 16.6 µM (inactive) in assay [2]; 11.9 µM (inactive) in assay [17]; 4.27 µM (inactive) in assay [3]; 7.19 µM in assay [4]; 5.77 µM (inactive) in [5]. For the same compound, the GI50 in assay [6] is 9.46 µM (inactive); in assay [7], 3.3 µM (inactive); in assay [8] it was 12.7 µM (inactive); in [18], 18.4 µM (inactive); in assay [9], 6.03 µM (inactive); in assay [10], 14.4 µM (inactive). Moreover, the GI50 in assay [11] was 2.45 µM (inactive); in assay [12], 4.95 µM (inactive); in [19] it was 1.84 µM (inactive); in assay [13], 2.01 µM (inactive); in [20], 8.73 µM (inactive); in [14] it was 15 µM (inactive). The GI50 in [15] is 19.3 µM (inactive).

Regarding `COc1nn(Cc2ccccn2)c2ccc([N+](=O)[O-])cc12`, the GI50 was 56.1 µM (inactive) in assay [1]; > 100 µM (inactive) in assay [2]; 42.4 µM (inactive) in assay [17]; 63 µM (inactive) in assay [3]; 62.7 µM in [4]; 38.3 µM (inactive) in assay [5]. The GI50 in assay [6] was > 100 µM (inactive); in [7], > 100 µM (inactive); in [8], > 100 µM (inactive); in assay [18], 64.4 µM (inactive); in assay [9], > 100 µM (inactive); in [10], 51.2 µM (inactive). Besides, the GI50 in [11] was 31 µM (inactive); in [12], > 100 µM (inactive); in assay [19], > 100 µM (inactive); in assay [13] it was 53.6 µM (inactive); in assay [20] it was 57.4 µM (inactive); in assay [14] it was 53.1 µM (inactive). Also, the GI50 in assay [15] was > 100 µM (inactive).

For `O=C(c1ccccc1)c1c(CC(O)c2cccnc2)n(C(=O)c2ccccc2)c2ccccc12` (stereo not given), the GI50 in assay [2] was 17.4 µM (inactive); in [3], 26.6 µM (inactive); in assay [4], 21.3 µM; in assay [5], 16.5 µM (inactive); in assay [6] it was 19.1 µM (inactive); in assay [7], 22.3 µM (inactive). For the same compound, the GI50 in assay [8] is 15.2 µM (inactive); in assay [9], 16.5 µM (inactive); in [10], 26.4 µM (inactive); in assay [11], 21.6 µM (inactive); in [12], 25.3 µM (inactive); in assay [14], 26.9 µM (inactive). In addition, the GI50 in assay [15] was 16 µM (inactive); in [16], 21.3 µM (inactive).

Take `O=C(O)C1Cc2[nH]c3ccccc3c2C2CCCC12` (stereo not given): the GI50 was > 100 µM (inactive) in [1]; > 100 µM (inactive) in assay [2]; > 100 µM (inactive) in [3]; greater than 100 µM in [4]; > 100 µM (inactive) in assay [5]; > 100 µM (inactive) in assay [6]. Besides, the GI50 in assay [7], in assay [8], in assay [9], in assay [10], in [11] and in assay [12] was > 100 µM (inactive) throughout. In addition, the GI50 in assay [13], in assay [14] and in assay [16] was > 100 µM (inactive) throughout.

For `COc1cc2ccc3c4c(OC)cc(OC)c(OC)c4c([O-])[n+](C)c3c2cc1OC`, the GI50 in assay [1] is 22.2 µM (inactive); in assay [2], 4.47 µM (inactive); in assay [5] it was 25.1 µM (inactive); in assay [7] it was 2.58 µM (inactive); in [8] it was 18.1 µM (inactive); in assay [9], 10.1 µM (inactive). For the same compound, the GI50 is > 20.6 µM (inactive) in [10]; 0.568 µM (active) in assay [11]; 45.3 µM (inactive) in [12]; > 40.3 µM (inactive) in [14]; 15.1 µM (inactive) in assay [15]; 9.38 µM (inactive) in [16].

Take `CCOC(=O)c1cc(NC(=O)c2ccccc2)c(=O)n2c(cc3c(Cl)cccc32)c1O`: the GI50 was > 100 µM (inactive) in assay [1]; 57.4 µM (inactive) in assay [2]; > 100 µM (inactive) in [17]; > 100 µM (inactive) in [3]; greater than 100 µM in assay [4]; > 100 µM (inactive) in [5]. Also, the GI50 in assay [6], in [7], in assay [8], in [18], in assay [9] and in assay [10] was > 100 µM (inactive) in each case. Further, the GI50 in assay [11], in assay [12], in [19], in [13], in [20] and in assay [14] was > 100 µM (inactive) throughout. The GI50 in assay [15] was > 100 µM (inactive).

`CCOC(=O)C(C)(C)C(O)C(C)C` (stereo not given): the GI50 in assay [1] is > 100 µM (inactive); in assay [2], > 100 µM (inactive); in [17] it was > 100 µM (inactive); in [3], > 100 µM (inactive); in [4], greater than 100 µM; in assay [5], > 100 µM (inactive). The GI50 in [6], in [7], in assay [8], in assay [18], in assay [9] and in assay [10] was > 100 µM (inactive) in each case. The GI50 in assay [11], in assay [12], in assay [19], in assay [13], in assay [20] and in assay [14] was > 100 µM (inactive) in each case. Also, in assay [15], the GI50 is > 100 µM (inactive).

As to `CC(=O)NNc1nc(C)c(C(=O)NNC(=O)C(=O)Nc2ccc(Cl)cc2)s1`, the GI50 in assay [1] was > 100 µM (inactive); in assay [2], > 100 µM (inactive); in assay [3], 54.6 µM (inactive); in assay [4], greater than 100 µM; in assay [5], > 100 µM (inactive); in assay [6] it was > 100 µM (inactive). Moreover, the GI50 in assay [7] is > 100 µM (inactive); in [8], 47 µM (inactive); in assay [9], > 100 µM (inactive); in assay [11], 46.2 µM (inactive); in assay [12], > 100 µM (inactive); in assay [13], 53 µM (inactive). Further, the GI50 in [14], in assay [15] and in assay [16] was > 100 µM (inactive) each time.

As for `CN(CCCNC(=O)c1nn(-c2ccccc2)c2c1ccc1ccccc12)CCCNC(=O)c1nn(-c2ccccc2)c2c1ccc1ccccc12`, the GI50 was 1.81 µM (inactive) in [1]; 1.87 µM (inactive) in assay [2]; 1.76 µM (inactive) in assay [17]; 1.95 µM (inactive) in assay [3]; 1.84 µM in assay [4]; 1.6 µM (inactive) in assay [5]. For the same compound, the GI50 in assay [6] is 1.85 µM (inactive); in assay [7], 1.65 µM (inactive); in [8], 1.82 µM (inactive); in assay [18] it was 1.8 µM (inactive); in [9], 1.82 µM (inactive); in assay [10], 1.61 µM (inactive). In addition, the GI50 was 1.29 µM (inactive) in assay [11]; 1.85 µM (inactive) in [12]; 1.8 µM (inactive) in assay [19]; 1.73 µM (inactive) in [13]; 2.12 µM (inactive) in assay [20]; 1.78 µM (inactive) in [14]. Further, in [15], the GI50 is 1.86 µM (inactive).

Take `C=C(C)C(=O)OC1C(C(C)CCCO)=C(CO)CC2OC(=O)C(=C)C21` (stereo not given): the GI50 in assay [1] was 24.6 µM (inactive); in assay [2], 47.2 µM (inactive); in assay [17] it was 13.8 µM (inactive); in assay [3], 14.7 µM (inactive); in assay [4] it was 13.3 µM; in [5], 14.9 µM (inactive). In addition, the GI50 in assay [6] is 16.3 µM (inactive); in assay [7] it was 15.1 µM (inactive); in assay [8] it was 28.1 µM (inactive); in [18] it was 33.5 µM (inactive); in assay [9] it was 19.3 µM (inactive); in assay [10] it was 17.1 µM (inactive). In addition, the GI50 was 15.2 µM (inactive) in assay [11]; 18.8 µM (inactive) in assay [12]; 11 µM (inactive) in assay [19]; 10.1 µM (inactive) in [13]; 17.5 µM (inactive) in assay [20]; 30.3 µM (inactive) in [14]. Moreover, in assay [15], the GI50 is 26.5 µM (inactive).

Take `Cc1ccc2nc(-c3ccc(C(C)(C)C)cc3)oc(=O)c2c1`: the GI50 in assay [1] was 20 µM (inactive); in assay [2] it was 17.8 µM (inactive); in assay [17], 36.5 µM (inactive); in [3], 26.3 µM (inactive); in assay [4] it was 16.4 µM; in assay [5], 17.5 µM (inactive). In addition, the GI50 in [6] was 23.8 µM (inactive); in assay [7], 18.2 µM (inactive); in [8], 20.7 µM (inactive); in assay [18], 17.7 µM (inactive); in [9], 19.6 µM (inactive); in assay [10], 19.4 µM (inactive). In addition, the GI50 in [11] was 17.3 µM (inactive); in [12] it was 16.9 µM (inactive); in [19] it was 23.9 µM (inactive); in assay [13], 16.4 µM (inactive); in [20], 20.6 µM (inactive); in [14], 39.7 µM (inactive). The GI50 in assay [15] is 27.9 µM (inactive).
